Laboratory results: ChEMBL document CHEMBL3217666, “Synthesis, thiol-mediated reactive oxygen species generation profiles and anti-proliferative activities of 2,3-epoxy-1,4-naphthoquinones” (Medchemcomm, 2012)
pIC50: −log10 of the molar value.

Key:
[1] = Induction of hydrogen peroxide generation at 100 uM after 30 mins by xylenol orange staining-based spectrophotometry in presence of GSH and oxygen; assay type: physicochemical; details: 0.5 h
HEK293 [2] = assay: Antiproliferative activity against HEK293 cells after 72 hrs by XTT assay; assay type: cell-based; details: Homo sapiens, HEK293, 72 h
[3] = Antiproliferative activity against human THP1 cells after 72 hrs by XTT assay; assay type: functional, cell-based; details: THP-1, 72 h
[4] = Antiproliferative activity against human glioma cells; assay type: functional, cell-based; details: Glioma cell
HEK293 [5] = assay: Selectivity index, ratio of IC50 for HEK293 cells to IC50 for human THP1 cells; assay type: functional

| Compound | Activity [1] [µM] | pIC50 (HEK293 [2]) | pIC50 [3] | pIC50 [4] | Ratio IC50 (HEK293 [5]) |
| --- | --- | --- | --- | --- | --- |
| CC12OC1C(=O)c1c(O)cccc1C2=O (stereo not given) | 1.6 |  | 4.64 |  |  |
| O=C1c2cccc([N+](=O)[O-])c2C(=O)C2OC12 (stereo not given) | 5.2 | 4.91 | 5.44 |  |  |
| O=C1c2ccc([N+](=O)[O-])cc2C(=O)C2OC12 (stereo not given) | 8.34 | 4.26 | 5.64 |  |  |
| Nc1cccc2c1C(=O)C1OC1C2=O (stereo not given) | 1.68 |  | < 4.30 |  |  |
| O=C1c2cccc(O)c2C(=O)C2OC12 (stereo not given) | 5.64 |  | 4.95 |  |  |
| CCOc1cccc2c1C(=O)C1OC1C2=O (stereo not given) | 1.68 |  | 5.02 |  |  |
| O=C1c2cccc(OCc3ccccc3)c2C(=O)C2OC12 (stereo not given) | 1.6 |  | 4.55 |  |  |
| O=C1c2cccc(OCc3ccc(C(F)(F)F)cc3)c2C(=O)C2OC12 (stereo not given) | 1.68 |  | < 4.30 |  |  |
| COc1cccc2c1C(=O)c1c(O)c3c(c(O)c1C2=O)C[C@@](O)(C(=O)CO)C[C@@H]3O[C@H]1C[C@H](N)[C@H](O)[C@H](C)O1 [DOXORUBICIN] |  | 6.15 | 6.96 |  | 6.4 |

More lines, main results first:

| Activity [1] [µM] | Compound | pIC50 (HEK293 [2]) | pIC50 [3] | pIC50 [4] | Ratio IC50 (HEK293 [5]) |
| --- | --- | --- | --- | --- | --- |
| 4.4 | O=C1c2ccccc2C(=O)C2OC12 (stereo not given) | 4.72 | 5.20 |  |  |
| 1.52 | CC12OC1C(=O)c1ccccc1C2=O (stereo not given) |  | 4.87 | 4.80 |  |
| 1.58 | CC12OC1C(=O)c1c(OCc3ccccc3)cccc1C2=O (stereo not given) |  | < 4.30 |  |  |
| 1.44 | O=C1c2ccccc2C(=O)C2(c3ccccc3)OC12 (stereo not given) |  | < 4.30 |  |  |
| 1.4 | O=C1c2ccccc2C(=O)C2(c3cccc([N+](=O)[O-])c3)OC12 (stereo not given) |  | < 4.30 |  |  |
| 1.36 | CC(=O)c1ccc(C23OC2C(=O)c2ccccc2C3=O)cc1 (stereo not given) |  | < 4.30 |  |  |
| 1.36 | O=C1c2ccccc2C(=O)C2(c3ccc(F)cc3)OC12 (stereo not given) |  | 4.93 |  |  |
| 1.48 | Cc1ccc(C23OC2C(=O)c2ccccc2C3=O)cc1 (stereo not given) |  | 4.69 |  |  |
| 1.28 | COc1ccccc1C12OC1C(=O)c1ccccc1C2=O (stereo not given) |  | 4.91 |  |  |
| 1.46 | COc1cccc(C23OC2C(=O)c2ccccc2C3=O)c1 (stereo not given) |  | < 4.30 |  |  |
| 1.4 | COc1ccc(C23OC2C(=O)c2ccccc2C3=O)cc1 (stereo not given) |  | 4.94 |  |  |
